Assay [1] deals with SCC-4 (human oral squamous cell carcinoma). Put plainly: Cytotoxic activity, alamar blue assay, SCC-4. Particulars: for more potent than metal-free piplartine: SCC4, IC50 72h. It is filed as cell-based. The source says:
(§1) HCT116 (human colon carcinoma), HepG2 (human hepatocellular carcinoma), HSC-3 (human oral squamous cell carcinoma), SCC-4 (human oral squamous cell carcinoma), SCC-9 (human oral squamous cell carcinoma), HL-60 (human promyelocytic leukemia), K-562 (human chronic myelogenous leukemia), B16-F10 (murine melanoma), MRC-5 (human lung fibroblast), WT SV40 MEF (wild-type immortalized mouse embryonic fibroblast) and BAD KO SV40 MEF (BAD gene knockout immortalized mouse embryonic fibroblast) cell lines were obtained from the American Type Culture Collection (ATCC, Manassas, VA, USA) and cultured in RPMI-1640 medium (Gibco-BRL, Gaithersburg, MD, USA) with 10% fetal bovine serum (Life, Carlsbad, CA, USA), 2 mM L-glutamine (Vetec Química Fina, Duque de Caxias, RJ, Brazil) and 50 μg/mL gentamycin (Life, Carlsbad, CA, USA). Adherent cells were collected by treatment with 0.25% trypsin EDTA solution (Gibco-BRL, Gaithersburg, MD, USA). All cell lines were cultured in flasks at 37°C in 5% CO2 and sub-cultured every 3-4 days to maintain exponential growth.
(§2) Cell viability was quantified using the alamar blue assay, according to Ahmed et al.. Cells were inserted in 96-well plates for all experiments (7 x 10^4 cells/mL for adherent cells or 3 x 10^5 cells/mL for suspended cells in 100 μL of medium). […] Negative controls received the vehicle that was used for diluting the compounds tested.
In general terms: The colour change of resazurin is a common sign of viable cells or microbes.

The subject of assay [2] is HCT116 cells. Nature of the assay: Internucleosomal DNA fragmentation and cell cycle distribution (DNA content, flow cytometry). It is filed as cell-based, human. Here is the method:
Cells were harvested in a permeabilization solution containing 0.1% triton X-100 (Sigma Chemical Co. St Louis, MO, USA), 2 μg/mL propidium iodide (Sigma Chemical Co. St Louis, MO, USA), 0.1% sodium citrate and 100 μg/mL RNAse (Sigma Chemical Co. St Louis, MO, USA) and incubated in the dark for 15 min at room temperature.
For orientation: Flow cytometry measures light scatter and fluorescence of single cells or particles in a stream.

For assay [3], the system named is BAD KO SV40 MEF (BAD gene knockout immortalized mouse embryonic fibroblast). Nature of the assay: Cytotoxic activity, alamar blue assay, BAD KO SV40 MEF. It is filed as cell-based.
Description: as §1, §2

In assay [4] the test system is SCC-9 (human oral squamous cell carcinoma). Nature of the assay: Cytotoxic activity, alamar blue assay, SCC-9. It is filed as cell-based. The note with it: for more potent than metal-free piplartine: SCC9, IC50 72h.
Description: as §1, §2

Assay [5] concerns K-562 (human chronic myelogenous leukemia). Put plainly: Cytotoxic activity, alamar blue assay, K-562. It is filed as cell-based. Particulars: for more potent than metal-free piplartine: K562, IC50 72h.
Description: as §1, §2

The subject of assay [6] is WT SV40 MEF (wild-type immortalized mouse embryonic fibroblast). Nature of the assay: Cytotoxic activity, alamar blue assay, WT SV40 MEF. It is filed as cell-based.
Description: as §1, §2

Assay [7] relates to cancer multicellular spheroids formed from HCT116 cells. Put plainly: 3D multicellular spheroids culture, alamar blue assay. It is filed as cell-based, human. Particulars: for more potent than metal-free piplartine: 3D spheroids of HCT116, IC50 72 h. Here is the method: as §2
HCT116 cells were cultivated in 3D multicellular spheroids. Briefly, 100 μL of a solution of cells (0.5 x 10^6 cells/mL) were inserted in 96-well plate with a cell-repellent surface (Greiner Bio-One, Kremsmünster, Austria) and cultured in RPMI 1640 medium with 10% fetal bovine serum, 2 mM glutamine, 3% matrigel (BD Biosciences, San Jose, CA, EUA) and 50 μg/mL gentamycin at 37°C with 5% CO2. […] Negative control received the vehicle that was used for diluting the compounds tested. In the end of the experiment, morphological changes were examined by light microscopy (Olympus BX41, Tokyo, Japan) using Image-Pro software (Media Cybernetics, Inc. Silver Spring, USA) and the cell viability was determined by alamar blue assay as described above.

In assay [8] the test system is HepG2 (human hepatocellular carcinoma). Put plainly: Cytotoxic activity, alamar blue assay, HepG2. Particulars: for more potent than metal-free piplartine: HepG2, IC50 72h. It is filed as cell-based.
Description: as §1, §2

Assay [9] deals with B16-F10 (murine melanoma). Put plainly: Cytotoxic activity, alamar blue assay, B16-F10. The note with it: for more potent than metal-free piplartine: B16-F10, IC50 72h. It is filed as cell-based.
Description: as §1, §2

Where [10] appears, read: BAD KO SV40 MEF, 72 h incubation, alamar blue, read-out: IC50.
The mark [11] stands for this setting: WT SV40 MEF, 72 h incubation, alamar blue, read-out: IC50.
Where [12] appears, read: 3D spheroids of HCT116, 72 h treatment, alamar blue, read-out: IC50.
Setting [13] is: HCT116, 1 μM, 24h, mean ± S.E.M.
The mark [14] stands for this setting: HCT116, 1 μM, 48h, mean ± S.E.M.
[15] abbreviates: HCT116, 10 μM, 24h, mean ± S.E.M.
The mark [16] stands for this setting: HCT116, 10 μM, 48h, mean ± S.E.M.

pIC50: −log10 of the molar value. Values joined by “and” are separate entries in the source; they are usually repeats but may differ in a detail not shown here. Equal entries are not always repeated. Where two headings read alike, the source gives them in different places.

In the case of “[Ru(piplartine)(dppf)(bipy)](PF6)2 [Complex 1]”, the “more potent than metal-free piplartine” value was 5 fold in assay [1]; 4 fold in assay [4]; 5 fold in assay [5]; “approximately 3 fold” in assay [7]; 4 fold in assay [8]; 4 fold in assay [9]. For the same compound, the “Selectivity index (SI)” value in assay [1] (SI = IC50[MRC-5]/IC50[SCC-4]) is given as 1.1; in [1] (SI = IC50[PBMC]/IC50[SCC-4]), 0.6; in [4] (SI = IC50[MRC-5]/IC50[SCC-9]), 0.8; in [4] (SI = IC50[PBMC]/IC50[SCC-9]), 0.4; in [5] (SI = IC50[MRC-5]/IC50[K-562]), 1.0; in [5] (SI = IC50[PBMC]/IC50[K-562]), 0.5. The “Selectivity index (SI)” value in assay [8] (SI = IC50[MRC-5]/IC50[HepG2]) amounted to 2.0; in assay [8] (SI = IC50[PBMC]/IC50[HepG2]), 1.1; in assay [9] (SI = IC50[MRC-5]/IC50[B16-F10]), 1.2; in [9] (SI = IC50[PBMC]/IC50[B16-F10]), 0.6. In addition, in assay [2], the “DNA content (%) G0/G1” value was 28.6 ± 5.9% and 39.4 ± 1.8% and 30.0 ± 5.8 % and 42.5 ± 1.7%. The “DNA content (%) S” value in assay [2] is 11.5 ± 2.5% and 20.1 ± 1.4% and 13.5 ± 1.5% and 21.9 ± 2.5%. For the same compound, the pIC50 (in general, the IC50 on a negative log10 scale, so that one unit is a factor of ten) was 5.49 in [3] (setting [10]), 5.62 in assay [6] (setting [11]) and 5.14 in assay [7] (setting [12]).

In the case of “[Ru(piplartine)(dppb)(bipy)](PF6)2 [Complex 2]”, the “more potent than metal-free piplartine” value in [1] was 3 fold; in [4], 2 fold; in assay [5] it was 3 fold; in assay [7], roughly 2 fold; in assay [8] it was 3 fold; in [9], 3 fold. The “DNA content (%) S” value in assay [2] was 18.7 ± 1.8% and 15.6 ± 1.8% and 21.2 ± 2.6% and 18.0 ± 1.3%. The pIC50 is 5.40 in assay [3] (setting [10]), 5.22 in assay [6] (setting [11]) and 5.08 in [7] (setting [12]).

For the compound `COc1cccc2c1C(=O)c1c(O)c3c(c(O)c1C2=O)C[C@@](O)(C(=O)CO)C[C@@H]3O[C@H]1C[C@H](N)[C@H](O)[C@H](C)O1` [Doxorubicin], the results for the “DNA content (%) G0/G1” value in [2] (setting [13]) and in [2] (setting [14]) were 22.1 ± 2.4% and 15.8 ± 2.0 %, respectively. Also, the “DNA content (%) G2/M” value in assay [2] (setting [13]) came to 59.0 ± 2.8 %; in [2] (setting [14]) it was 49.0 ± 5.9 %. Moreover, the “DNA content (%) Sub-G0/G1” value in assay [2] (setting [13]) is listed as 5.2 ± 1.4%; in assay [2] (setting [14]), 21.8 ± 5.4 %. The pIC50 in assay [3] (Mus musculus, Fibroblast, BAD KO SV40 MEF, 72 h incubation, alamar blue, read-out: IC50) is 6.39; in assay [4] (Homo sapiens, SCC-9, 72h of incubation, alamar blue, with 95% confidence interval), 5.59; in assay [6] (Mus musculus, Fibroblast, WT SV40 MEF, 72 h incubation, alamar blue, read-out: IC50) it was 7.40; in assay [7] (Homo sapiens, HCT-116, 3D spheroids of HCT116, 72 h treatment, alamar blue, read-out: IC50) it was 5.20; in [9] (Mus musculus, B16-F10, 72h of incubation, alamar blue, with 95% confidence interval) it was 7.70.

Consider `COc1cc(/C=C/C(=O)N2CCC=CC2=O)cc(OC)c1OC` [Piplartine], for which the “Selectivity index (SI)” value in assay [1] (SI = IC50[MRC-5]/IC50[SCC-4]) is on record as 1.1; in assay [1] (SI = IC50[PBMC]/IC50[SCC-4]), 2.2; in assay [4] (SI = IC50[MRC-5]/IC50[SCC-9]) it was 1.0; in assay [4] (SI = IC50[PBMC]/IC50[SCC-9]) it was 2.1; in assay [5] (SI = IC50[MRC-5]/IC50[K-562]), 0.9; in assay [5] (SI = IC50[PBMC]/IC50[K-562]), 1.8. The “Selectivity index (SI)” value in assay [8] (SI = IC50[MRC-5]/IC50[HepG2]) is recorded as 2.7; in [8] (SI = IC50[PBMC]/IC50[HepG2]) it was 5.4; in assay [9] (SI = IC50[MRC-5]/IC50[B16-F10]), 1.6; in assay [9] (SI = IC50[PBMC]/IC50[B16-F10]), 3.2. Moreover, the “DNA content (%) G0/G1” value turned out to be 22.7 ± 0.6% in [2] (setting [15]) and 27.0 ± 2.9 % in assay [2] (setting [16]). Moreover, the “DNA content (%) G2/M” value in assay [2] (setting [15]) is recorded as 21.5 ± 2.9%; in [2] (setting [16]), 21.9 ± 0.9%. Also, the “DNA content (%) S” value in assay [2] (setting [15]) was found to be 21.4 ± 2.3%; in [2] (setting [16]), 16.4 ± 2.2%. The “DNA content (%) Sub-G0/G1” value in [2] (setting [15]) was 20.3%; in [2] (HCT116, 10 μM, 24h, mean ± S.E.M., listed as PL), 20.3 ± 1.8 %; in assay [2] (setting [16]) it was 33.9%; in assay [2] (HCT116, 10 μM, 48h, mean ± S.E.M., listed as PL) it was 33.9 ± 5.8 %. The pIC50 was 5.40 in assay [3] (Mus musculus, Fibroblast, 72 h); 4.73 in [5] (Homo sapiens, K562, 72 h); 5.35 in [6] (Mus musculus, Fibroblast, 72 h); 4.66 in assay [7] (Homo sapiens, HCT-116, 72 h); 5.20 in [8] (Homo sapiens, HepG2, 72 h).

The values above are taken from article PMC5732813, “Novel piplartine-containing ruthenium complexes: synthesis, cell growth inhibition, apoptosis induction and ROS production on HCT116 cells” (Oncotarget, 2017).
